Assay results: patent publication US11155586B2, “Cystine knot scaffold platform” (Genentech, Inc., priority 2015, dated 2021)
Positions of bridges follow the written chain, without caps; N, C: chain ends. Residues, ends and D or L forms follow the SMILES beside them.

Key:
[1] = system: choroidal neovascularization in rat eyes; assay: VEGF-A driven model of laser-induced choroidal neovascularization; type: in vivo; conditions: intravitreal, 14-day period, vs control eyes, FIG. 12
Experimental: Next, VEGF-A binding variants VEGF_CKP9.54.90, VEGF_CKP9.63.12, and VEGF_CKP9.63.44 were assessed for their in vivo efficacy in a VEGF-A driven model of choroidal neovascularization. Laser-burnt spots were created in rat eyes and the formation of new vessels was monitored after a 14-day period in the presence and absence of peptide that was administered intravitreally at different intervals.

[2] = Oxidative stability (AAPH, LC-MS); type: physicochemical; conditions: 16 hours at 40° C.
Experimental: The oxidative stability of various CKP variants was assayed as follows: 5 μL of 11 mM AAPH (Calbiochem catalog no. 100110) in water was added to 50 uL of variant peptide sample (prepared as 1 mg/mL peptide in 20 mM histidine acetate pH 5.5) and the mix was incubated for 16 hours at 40° C. At the end of the incubation, the sample was quenched by addition of 27.5 uL of 40 mM methionine, followed by addition of 160 ul of 20 mM Histidine acetate, 100 mM sucrose at pH 5.5 to dilute the samples. The reactions were analyzed by LC-MS.

VEGF-C and Flt-4 = molecular target: T1, VEGF-C and Flt-4 (Homo sapiens, UniProt P49767); assay: Competition ELISA, growth factor/receptor interaction; type: binding; conditions: FIG. 2A
T1 construct: purchased R &D Systems (Minneapolis, Minn.)
T1 sequence (P49767 112-227 limits assumed): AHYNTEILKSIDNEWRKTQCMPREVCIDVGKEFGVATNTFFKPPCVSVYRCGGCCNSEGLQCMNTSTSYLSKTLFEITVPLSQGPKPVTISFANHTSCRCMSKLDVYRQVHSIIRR
Experimental: (§1) Binding specificity of each peptide was established by competition ELISA. […] After blocking with block buffer (PBS with 0.5% BSA and 0.05% TWEEN®20) for 2 hours at room temperature, the receptor-Fc fusions or biotinylated receptors were serially diluted using assay buffer (PBS with 0.5% BSA and 0.05% TWEEN®20) and incubated for 1 hour at room temperature. […] Competition ELISA was conducted in an identical fashion as described above except after blocking, a mixture of serially diluted peptide containing a constant concentration of receptor-Fc fusion or biotinylated receptor (concentration of receptor was set to EC60) was added and incubated for 1 hour. All recombinant human proteins and antibodies were purchased from R &D Systems (Minneapolis, Minn.).

VEGF-A and Flt-1 = molecular target: T2, VEGF-A and Flt-1 (Homo sapiens, UniProt P15692); assay: as above; type: binding; conditions: FIGS. 2A and 2B
T2 construct: VEGF-A(8-109) and Flt-1; purchased R &D Systems (Minneapolis, Minn.)
T2 sequence (P15692 214-315): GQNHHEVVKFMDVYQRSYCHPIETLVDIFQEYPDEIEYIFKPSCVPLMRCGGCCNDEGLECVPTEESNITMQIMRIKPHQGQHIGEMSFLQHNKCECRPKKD
Experimental: as §1

VEGF-B and Flt-1 = molecular target: T3, VEGF-B and Flt-1 (Homo sapiens, UniProt P49765); assay: as above; type: binding; conditions: FIG. 2A
T3 construct: purchased R &D Systems (Minneapolis, Minn.)
T3 sequence (P49765 22-136 limits assumed): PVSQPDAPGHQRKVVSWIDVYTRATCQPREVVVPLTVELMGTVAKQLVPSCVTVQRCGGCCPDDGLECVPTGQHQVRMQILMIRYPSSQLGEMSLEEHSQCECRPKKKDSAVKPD
Experimental: as §1

VEGF-D and Flt-4 = molecular target: T4, VEGF-D and Flt-4 (Homo sapiens, UniProt O43915); assay: as above; type: binding; conditions: FIG. 2A
T4 construct: purchased R &D Systems (Minneapolis, Minn.)
T4 sequence (O43915 89-205 limits assumed): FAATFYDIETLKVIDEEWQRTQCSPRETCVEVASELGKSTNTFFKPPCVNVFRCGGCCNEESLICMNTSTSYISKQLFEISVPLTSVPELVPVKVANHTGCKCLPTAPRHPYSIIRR
Experimental: as §1

PIGF-2 and Flt-1 = molecular target: T5, PIGF-2 and Flt-1 (Homo sapiens, UniProt P49763); assay: as above; type: binding; conditions: FIG. 2A
T5 construct: purchased R &D Systems (Minneapolis, Minn.)
T5 sequence (P49763 19-170 isoform P49763-3 limits assumed): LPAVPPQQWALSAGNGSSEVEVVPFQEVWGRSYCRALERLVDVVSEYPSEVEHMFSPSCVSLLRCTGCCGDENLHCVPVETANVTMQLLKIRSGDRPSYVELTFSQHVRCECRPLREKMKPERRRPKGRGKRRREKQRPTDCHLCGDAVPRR
Experimental: as §1

NGF and NGFR = molecular target: T6, NGF and NGFR (Homo sapiens, UniProt P01138); assay: as above; type: binding; conditions: FIG. 2B
T6 construct: purchased R &D Systems (Minneapolis, Minn.)
T6 sequence (P01138 122-241): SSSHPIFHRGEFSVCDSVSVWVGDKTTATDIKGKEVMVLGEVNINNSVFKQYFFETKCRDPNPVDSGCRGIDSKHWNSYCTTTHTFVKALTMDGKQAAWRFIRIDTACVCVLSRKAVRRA
Experimental: as §1

PDGF and PDGFR = molecular target: T7, PDGF and PDGFR (Homo sapiens, UniProt P01127); assay: as above; type: binding; conditions: FIG. 2B
T7 construct: purchased R &D Systems (Minneapolis, Minn.)
T7 sequence (P01127 82-190 limits assumed): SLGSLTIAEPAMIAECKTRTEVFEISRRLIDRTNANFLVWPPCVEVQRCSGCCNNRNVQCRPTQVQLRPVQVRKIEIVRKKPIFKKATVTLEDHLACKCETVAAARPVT
Experimental: as §1

IGF and IGFR = molecular target: T8, IGF and IGFR (Homo sapiens, UniProt P05019); assay: as above; type: binding; conditions: FIG. 2B
T8 construct: purchased R &D Systems (Minneapolis, Minn.)
T8 sequence (P05019 49-118 limits assumed): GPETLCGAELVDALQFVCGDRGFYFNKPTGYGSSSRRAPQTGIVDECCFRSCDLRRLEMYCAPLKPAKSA
Experimental: as §1

EGF and EGFR = molecular target: T9, EGF and EGFR (Homo sapiens, UniProt P01133); assay: as above; type: binding; conditions: FIG. 2B
T9 construct: purchased R &D Systems (Minneapolis, Minn.)
T9 sequence (P01133 971-1023 limits assumed): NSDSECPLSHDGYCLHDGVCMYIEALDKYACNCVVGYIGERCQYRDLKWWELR
Experimental: as §1

SMILES: CC[C@H](C)[C@@H]1NC(=O)[C@H](CC(N)=O)NC(=O)[C@@H](NC(=O)CN)CSSC[C@@H](C(=O)N[C@H](C(=O)N[C@H]2CSSC[C@@H](C(=O)NCC(=O)O)NC(=O)[C@H](CO)NC(=O)[C@H](CCC(N)=O)NC(=O)[C@H](Cc3ccc(O)cc3)NC(=O)[C@H](Cc3ccc(O)cc3)NC(=O)[C@H](CCC(N)=O)NC2=O)C(C)C)NC(=O)CNC(=O)[C@H](C)NC(=O)[C@H](CC(C)C)NC(=O)[C@@H]2CSSC[C@H](NC(=O)CNC(=O)[C@H](Cc3c[nH]c4ccccc34)NC(=O)[C@H](Cc3ccccc3)NC(=O)[C@@H]3CCCN3C(=O)[C@H](CC(C)C)NC(=O)[C@H](CCSC)NC1=O)C(=O)NCC(=O)N[C@@H](CCCNC(=N)N)C(=O)N[C@@H](CC(=O)O)C(=O)N[C@@H](Cc1ccccc1)C(=O)N[C@@H](CCC(=O)O)C(=O)N2 [VEGF_CKP9.54.90] (H-GCNIMLPFWGCGRDFECLAGCVCQYYQSCG-OH; disulfide 2-21, 11-17, 23-29; N-terminus and C-terminus assumed)
- inhibition of laser-induced choroidal neovascularization (neovascular area) [1]: effective inhibition
- oxidation at Met5 within loop 1 [2]: ~30%
- disruption of the interaction between VEGF-C and Flt-4 (VEGF-C and Flt-4): not disrupt
- disruption of the interaction between VEGF-A and Flt-1 (VEGF-A and Flt-1): disrupts
- disruption of the interaction between VEGF-B and Flt-1 (VEGF-B and Flt-1): not disrupt
- disruption of the interaction between VEGF-D and Flt-4 (VEGF-D and Flt-4): not disrupt
- disruption of the interaction between PIGF-2 and Flt-1 (PIGF-2 and Flt-1): not disrupt
- disruption of the interaction between NGF and NGFR (NGF and NGFR): not disrupt
- disruption of the interaction between PDGF and PDGFR (PDGF and PDGFR): not disrupt
- disruption of the interaction between IGF and IGFR (IGF and IGFR): not disrupt
- disruption of the interaction between EGF and EGFR (EGF and EGFR): not disrupt
